{"source": "patent EP3294317B1", "about": "“ENHANCED ANTIBIOTIC COMPOSITION” (Universitat Autònoma de Barcelona, priority 2015, dated 2016)", "key": {"[1]": {"system": "S. maltophilia ATCC 13637", "assay": "Broth microdilution MIC of other antibiotics with potentiator compounds (Example 2)", "assay_type": "cell-based, Stenotrophomonas maltophilia", "method": "Following the procedure of Example 1, ciprofloxacin, amikacin, levofloxacin, tigecycline, imipenem and the combination trimethoprim/sulfamethoxasole (1:19) were tested. All were purchased from Sigma-Aldrich Co.\nMinimal inhibitory concentration (MIC) of the antibiotic or the test combinations were determined by the broth microdilution method.\nAntibiotic stock solutions were prepared according to CLSI recommendations and sterilizing by passage through 0.20 µm filters.\nAntimicrobial susceptibility testing of these isolates was performed using the broth microdilution (BMD) method, according to CLSI guidelines.\n(§1) The fold increase in bacterial susceptibility to antibiotics when combined with the potentiator compound (expressed as MIC in the presence of 1.0% DMSO / MIC in the presence of 0.1 mM of each potentiator compound and 1.0% DMSO) are shown in Table 4: […]"}, "A. baumannii 6799": {"system": "A. baumannii 6799", "assay": "Colistin broth microdilution MIC with potentiator compounds, resistant clinical isolates (Example 3)", "assay_type": "cell-based, Acinetobacter baumannii", "details": "MIC in the presence of 1.0% DMSO / MIC in the presence of 0.1 mM compound and 1.0% DMSO, positive = increased susceptibility, 1 = no effect", "method": "(§2) The potentiator effect of the compound of the invention and other compounds disclosed herein was tested using colistin sulfate as antibiotic and in combination with the enhancer compounds in front of resistant clinical isolates.\n(§3) Tests were performed to determine the potentiator effect of the compound of the invention and other compounds disclosed herein with multidrug-resistant S. maltophilia and A. baumannii clinical strains as shown in Table 5: TABLE 5\n(§4) For this experiment the potentiator compound was added to a colistin broth microdilution assay at a final concentration of 0.1mM. MICs were determined as described in the Example 1.\nas §1, with “Colistin minimal inhibitory concentration (MIC), expressed in µg/mL, and the” for “The”, “colistin” for “antibiotics”, “6:” for “4:”"}, "A. baumannii 6963": {"system": "A. baumannii 6963", "assay": "Colistin broth microdilution MIC with potentiator compounds, resistant clinical isolates (Example 3)", "assay_type": "cell-based, Acinetobacter baumannii", "details": "MIC in the presence of 1.0% DMSO / MIC in the presence of 0.1 mM compound and 1.0% DMSO, positive = increased susceptibility, 1 = no effect", "method": "as §2, §3, §4\nas §1, with “Colistin minimal inhibitory concentration (MIC), expressed in µg/mL, and the” for “The”, “colistin” for “antibiotics”, “6:” for “4:”"}, "S. maltophilia K279a": {"system": "S. maltophilia K279a", "assay": "Colistin broth microdilution MIC with compound of formula I prepared in methanol or DMSO (Example 6)", "assay_type": "cell-based, Stenotrophomonas maltophilia", "details": "MIC in the presence of 1.0% DMSO / MIC in the presence of 0.1 mM of compound of formula I and 1.0% DMSO", "method": "(§5) The potentiator effect of the compound of the invention in a new formulation was tested by using colistin sulphate as antibiotic in combination with the enhancer compound of formula I in front of resistant clinical isolates. […]\n(§6) Tests were performed to determine the potentiator effect of the compound of the invention with two colistin resistant S. maltophilia strains as shown in Table 9. S. maltophilia K279a is a reference clinical strain. The origin of clinical strain OC323 together with K279a has been described previously (Huedo et al., Two Different rpf Clusters Distributed among a Population of Stenotrophomonas maltophilia Clinical Strains Display Differential Diffusible Signal Factor Production and Virulence Regulation, J. Bacteriol., 2014, 196, 2431-2442).\n(§7) Selected compound of formula I was first dissolved in 100% of Methanol (HPLC Gradient Grade CHROMASOLV. Sigma, 34885-1L-R) to 10 mM. The compound was fairly soluble in methanol up to 10 mM and required vigorous vortex.\n(§8) […] MICs were determined as described in the Example 1.\n(§9) Strains colistin minimal inhibitory concentration (MIC), expressed in µg/mL, and the fold increase in bacterial susceptibility to colistin when combined with the potentiator compound previously dissolved in methanol ([…]) are shown in Table 9: TABLE 9"}, "S. maltophilia OC323": {"system": "S. maltophilia OC323", "assay": "Colistin broth microdilution MIC with compound of formula I prepared in methanol or DMSO (Example 6)", "assay_type": "cell-based, Stenotrophomonas maltophilia", "details": "MIC in the presence of 1.0% DMSO / MIC in the presence of 0.1 mM of compound of formula I and 1.0% DMSO", "method": "as §5, §6, §7, §8, §9"}, "[2]": {"details": "MIC in 1.0% DMSO / MIC with 0.1 mM potentiator compound and 1.0% DMSO"}}}
{"smiles": "CN(C)CCNC(=O)c1cccc(CNC(=O)Nc2ccc3c(c2)Cc2ccccc2-3)c1", "note": "[I, N-[2-(dimethylamino)ethyl]-3-[(9H-fluoren-2-ylcarbamoylamino)methyl]benzamide]", "values": [{"measurement": "Fold increase in bacterial susceptibility to Amikacin", "setting": "[1]; [2]", "result": 4, "unit": "fold"}, {"measurement": "Fold increase in bacterial susceptibility to Ciprofloxacin", "setting": "[1]; [2]", "result": 2, "unit": "fold"}, {"measurement": "Fold increase in bacterial susceptibility to Levofloxacin", "setting": "[1]; [2]", "result": 2, "unit": "fold"}, {"measurement": "Fold increase in bacterial susceptibility to TMP/SMX", "setting": "[1]; Trimethoprim:sulfamethoxazole 1:19, MIC in 1.0% DMSO / MIC with 0.1 mM potentiator compound and 1.0% DMSO", "result": 2, "unit": "fold"}, {"measurement": "Fold increase in bacterial susceptibility to colistin", "setting": "A. baumannii 6799", "result": "+8 fold"}, {"measurement": "Fold increase in bacterial susceptibility to colistin", "setting": "A. baumannii 6963", "result": ">4", "unit": "fold"}, {"measurement": "Fold increase in bacterial susceptibility to colistin", "setting": "S. maltophilia K279a", "result": "+4 fold"}, {"measurement": "Fold increase in bacterial susceptibility to colistin", "setting": "S. maltophilia OC323", "result": "+4 fold"}]}
